Test results as given in US10973832B2, “Muscarinic M1 receptor agonists” (Heptares Therapeutics Limited, priority 2011, dated 2021).
pEC50: −log10 of the molar value.

Assays:
[1] = target: T1, human muscarinic M3 receptor (Homo sapiens, UniProt P20309); assay: Phospho-ERK1/2 assay, muscarinic M3; type: cell-based; conditions: for Emax: CHO, read-out: % Emax cf. ACh (M3)
T1 construct: expressed in transfected cells
Method in brief: (§1)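 The assay used ERK1/2 phosphorylation as a common downstream read-out of Gq/11 and Gi/o receptor activation. CHO cells expressing each human receptor were exposed to agonist for five minutes at 37 °C after overnight serum starvation. Potency (pEC50) and maximal effect (Emax) came from the AlphaScreen signal.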

[2] = target: T2, human muscarinic M1 receptor (Homo sapiens, UniProt P11229); assay: Phospho-ERK1/2 assay, muscarinic M1; type: cell-based; conditions: for Emax: CHO, read-out: % Emax cf. ACh (M1)
T2 sequence (P11229 1-460): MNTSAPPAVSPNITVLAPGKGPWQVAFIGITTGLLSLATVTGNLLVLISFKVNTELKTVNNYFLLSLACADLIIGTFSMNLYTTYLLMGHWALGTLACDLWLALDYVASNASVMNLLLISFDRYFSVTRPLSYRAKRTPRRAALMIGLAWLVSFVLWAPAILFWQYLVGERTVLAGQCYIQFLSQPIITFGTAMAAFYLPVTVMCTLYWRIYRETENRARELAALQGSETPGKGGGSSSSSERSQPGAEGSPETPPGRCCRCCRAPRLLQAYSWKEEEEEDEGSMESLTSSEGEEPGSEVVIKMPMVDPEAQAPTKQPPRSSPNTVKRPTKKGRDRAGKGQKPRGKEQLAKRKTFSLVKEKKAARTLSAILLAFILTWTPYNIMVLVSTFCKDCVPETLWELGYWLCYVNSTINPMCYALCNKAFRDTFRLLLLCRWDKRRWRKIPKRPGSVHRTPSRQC
Method in brief: as §1

[3] = system: CA1 region of rat hippocampal slices; assay: CA1 cell firing (fEPSP amplitude); type: cell-based; conditions: five point cumulative concentration-response, 6 slices averaged
Procedure: Rat hippocampal slices of […] thickness were cut in chilled (<4° C.) artificial cerebrospinal fluid (aCSF, composition in mM: NaCl 127, KCl 1.6, KH2PO4 1.24, MgSO4 1.3, CaCl2 2.4, NaHCO3 26 and D-glucose 10) using vibratome. Slices were maintained in oxygenated (95% O2/5% CO2) aCSF at room temperature for at least 1 hr prior to electrophysiological recording, after which they were transferred to an interface chamber and constantly perfused with warmed (30° C.) oxygenated aCSF at a flow rate of 1.5-3 ml·min−1. Schaffer collaterals were then stimulated (1-20 V, 0.1 ms pulse width, 0.033 Hz) with a concentric bipolar electrode to evoke field excitatory post synaptic potentials (fEPSPs) recorded from the stratum radiatum of the CA1 region.
Experiments were performed to examine the effect of compound compared to […] carbachol (CCh), on the amplitude of fEPSPs in the CA1 region of rat hippocampal slices. 1 μM CCh was initially applied until steady-state, followed by wash, before performing a five point cumulative concentration-response to compound. Each compound was tested on 6 slices and results averaged. Drug preparation; compound was dissolved in 100% DMSO at a stock concentration of 30 mM, and diluted according to requirements, carbamoylcholine chloride (CCh) was purchased from Sigma (Cat #C4382) and dissolved at a stock concentration of 1 mM in ddH2O.

Rats = assay: Irwin profile; type: in vivo
Procedure: The method, which detects the principal effects of a test substance on behaviour and physiological function, follows that described by Irwin (1968) Psychopharmacologia. Cholinergic side effects are potentially visible in the behavioural readout of the Irwin assay, and an absence of these side effects can be taken as an indication that agonism of the M2 and M3 receptors is not significant in vivo.
Rats are administered the test substance or its vehicle, and are observed in simultaneous comparison with a control group. Behavioural modifications, physiological and neurotoxicity symptoms, rectal temperature and pupil diameter are recorded according to a standardized observation grid derived from that of Irwin. The grid contains the following items: death, convulsions, tremor, Straub tail, altered activity, jumping, abnormal gait (rolling, tiptoe), motor incoordination, altered abdominal muscle tone, loss of grasping, akinesia, catalepsy, loss of traction, loss of balance, fore-paw treading, writhing, piloerection, stereotypies (sniffing, chewing, head movements), head-twitches, scratching, altered respiration, aggression, altered fear/startle, altered reactivity to touch, ptosis, exophthalmia, loss of righting reflex, loss of corneal reflex, analgesia, defecation/diarrhea, salivation, lacrimation, rectal temperature (hypothermia/hyperthermia) and pupil diameter (myosis/mydriasis). […]

[4] = target: T3, human muscarinic M2 receptor (Homo sapiens, UniProt P08172); assay: Phospho-ERK1/2 assay, muscarinic M2; type: cell-based; conditions: for Emax: CHO, read-out: % Emax cf. ACh (M2)
T3 sequence (P08172 1-466): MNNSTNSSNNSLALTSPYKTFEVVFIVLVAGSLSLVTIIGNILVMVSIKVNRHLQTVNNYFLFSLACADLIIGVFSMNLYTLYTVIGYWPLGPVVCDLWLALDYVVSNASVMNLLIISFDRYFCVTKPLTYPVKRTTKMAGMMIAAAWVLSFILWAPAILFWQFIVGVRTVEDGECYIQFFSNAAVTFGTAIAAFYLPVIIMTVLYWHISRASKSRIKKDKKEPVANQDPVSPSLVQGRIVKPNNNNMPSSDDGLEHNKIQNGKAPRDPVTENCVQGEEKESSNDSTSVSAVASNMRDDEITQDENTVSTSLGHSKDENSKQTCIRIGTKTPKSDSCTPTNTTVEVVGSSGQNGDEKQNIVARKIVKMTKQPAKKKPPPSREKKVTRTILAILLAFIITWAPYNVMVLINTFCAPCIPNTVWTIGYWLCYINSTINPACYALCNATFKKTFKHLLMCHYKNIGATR
Method in brief: as §1

T1 sequence (P20309 whole entry): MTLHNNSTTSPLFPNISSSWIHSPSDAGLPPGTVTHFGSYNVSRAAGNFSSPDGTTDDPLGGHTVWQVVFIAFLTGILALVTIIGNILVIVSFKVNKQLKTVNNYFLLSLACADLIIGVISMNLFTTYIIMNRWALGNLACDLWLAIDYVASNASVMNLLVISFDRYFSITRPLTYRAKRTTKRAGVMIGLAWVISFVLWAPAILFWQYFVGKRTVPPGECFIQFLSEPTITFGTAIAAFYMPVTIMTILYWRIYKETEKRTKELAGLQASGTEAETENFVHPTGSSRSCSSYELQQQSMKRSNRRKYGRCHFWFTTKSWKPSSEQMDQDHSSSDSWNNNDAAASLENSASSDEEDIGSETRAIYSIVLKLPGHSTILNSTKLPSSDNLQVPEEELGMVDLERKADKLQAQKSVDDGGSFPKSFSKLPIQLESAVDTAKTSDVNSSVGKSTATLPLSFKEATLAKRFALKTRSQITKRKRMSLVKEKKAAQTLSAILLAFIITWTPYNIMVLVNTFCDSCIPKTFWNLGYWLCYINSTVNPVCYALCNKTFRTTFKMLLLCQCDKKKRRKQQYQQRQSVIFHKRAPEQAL

Row | SMILES | pEC50 [1] | Emax [1] | pEC50 [2] | Emax [2] | pEC50 [3] | Irwin observation grid, effects on any parameter vs vehicle (Rats; 3, 10, 30 and 75 mg/kg po, 15, 30, 60, 120, 180 minutes and 24 hours) | pEC50 [4] | Emax [4] | Irwin observation grid, effects on any parameter vs vehicle (Rats; 5, 10, 20 and 40 mg/kg, 15, 30, 60, 120 and 180 minutes)
1 | CCOC(=O)N1CCCC(N2CCC(C(=O)NC3(C)CCC3)CC2)CC1 (stereo not shown) [Example 27, ethyl 4-(4-((1-methylcyclobutyl)carbamoyl)piperidin-1-yl)azepane-1-carboxylate] | < 4.70 | 5% | 7.34 | 117% | 5.92 | No effects on any parameter were observed at any time point | < 4.70 | 56% | 
2 | CCOC(=O)N1CCC[C@H](N2CCC(C(=O)NC3(C)CCC3)CC2)CC1 [Example 65, ethyl (4S)-4-{4-[(1-methylcyclobutyl)carbamoyl]piperidin-1-yl)azepane-1-carbondate] | < 4.70 | 11% | 7.50 | 104% | 5.69 |  | < 4.70 | 7% | No significant effects on any parameter were observed
